Measured values reported in patent US20260151434A1, “COMPOSITIONS FOR THE TREATMENT OF DISEASE” (priority 2022, published 2026).
Each block holds one molecule with its values, some of them ahead of it. Bridge positions count the residues as written; N and C are the ends. Square brackets hold non-standard residues; d marks the D form. Triazole bridges read from a SMILES are 1,4-linked. Peptide text beside a SMILES is read from it. * marks the point of attachment. Benzoyl(3,5-(OH)2) = O=C(c1cc(O)cc(O)c1)*; Lys(N3) = [N-]=[N+]=NCCCC[C@H](N)C(=O)O; dPhe(4-F) = N[C@H](Cc1ccc(F)cc1)C(=O)O; Nle = CCCC[C@H](N)C(=O)O; Pra = C#CC[C@H](N)C(=O)O

Key:
[1] = in vivo; details: rabbit, topical or ocular, 35 uL of 5 mg/ml solution per eye per dose
Method: (§1) Animals were acclimated to the study and, upon completion of the acclimation period, each animal was physically examined for determination of suitability for study participation. […] Animals were uniquely identified by corresponding cage card number and ear tag.
(§2) The designated peptide formulations (35 μL) were administered to the eye of each animal using a calibrated pipette. With the animal manually restrained, the upper eyelid of the eye was gently elevated to expose the cornea. Treatment was then applied to the cornea without contacting the eye with the pipette tip. The animal was then allowed to blink several times while still manually restrained to distribute the applied solution over the eye prior to being returned to the cage. Treatment was administered once daily (QD) or twice daily (BID) with approximately 8 hours between BID doses. Group 1 was administered a single dose, Group 2 received 4 doses, Group 3 received 8 doses. Samples were collected from 3 animals/group 30 min, 1 hr, 2 hr, 4 hr, and 8 hr post-last dose and from 2 animals/group 24 hours post-last dose.
(§3) Following euthanasia, eyes were enucleated, rinsed 2× with fresh ice-cold PBS, and dabbed dry with gauze. Aqueous humor was removed via a 27- or 30-gauge syringe, placed into a pre-weighted 2 mL polypropylene tube, reweighed, and snap frozen by immersion in liquid nitrogen. The cornea was harvested fresh from each eye, placed into a pre-weighted re-enforced 2 mL polypropylene tube, re-weighed and snap frozen in liquid nitrogen. The remaining ocular tissues were discarded. Ocular samples were stored −80° C. All samples were placed into individual vials and weighed. Aqueous humor and cornea samples were collected.

[2] = tested on: corneal edema following descemetorhexis without endothethelial keratoplasty (DWEK) surgery in rabbits; assay: Corneal edema and wound healing after DWEK surgery, topical administration, rabbit; assay type: in vivo
Method: The objective of the present study was to evaluate the efficacy of the α-MSH peptide analogues in reducing corneal edema following descemetorhexis without endothethelial keratoplasty (DWEK) surgery in rabbits. […] Treatment was administered once (QD) or twice daily (BID) with approximately 6-8 hours between each BID dose.
The rabbits were subjected to a surgical procedure prior to administering topical treatment. The animals received buprenorphine (0.01-0.05 mg/kg SC) and were sedated immediately prior to the procedure with ketamine/xylazine cocktail (20-50/4-10 mg/kg IM). Aseptic precautions were taken for the surgical procedure. […] Sterile eyewash was then used to irrigate the ocular surface of the left eye. […] The animal's corneal epithelium was marked with a circular ring (5 mm) to create a template for resection of the host tissue. […] Descemet's membrane was scored peripherally using a reverse Terry-Sinskey hook, and then Descemet's membrane was peeled from the overlying stroma. Descemet's membrane was removed using forceps. Viscoelastic was removed by Irrigation Aspiration (IA) using balanced salt […] (BSS). One (1) ml of epinephrine 1:1000 and 0.5 ml of heparin (10,000 USP units/ml) was added to each 500 ml of irrigation solution (BSS) to facilitate pupil dilation, control inflammation, and reduce fibrin formation. […]

[3] = rabbit, in vivo
Method: as §1, §2, §3

[4] = Solubility comparison; assay type: physicochemical
Description: The MCR agonists in vivo ocular permeability should allow for concentrations well exceeding EC50 values.

[5] = tested on: iPSC-derived ocular stem cells (ABC-101); assay: Apo-ONE Homogeneous Caspase-3/7 assay after A23187 challenge of ocular stem cells; assay type: cell-based
Description: To assess the cytoprotective properties of the α-MSH peptide analogues in-vitro the present inventors tested their modulatory influence on reactive oxygen species (ROS) production and caspase activation in response to cellular stress. For these in-vitro challenge assays, the present inventors induced cellular stress using tert-Butyl hydroperoxide (TBHP) or calcium ionophore (A23187), compounds which are respectively known to induce oxidative and metabolic stress. Oxidative stress was correlated to an increase of ROS within cells. […] Within the current assays, the present inventors monitored ROS accumulation and subsequent caspase activity as readouts of cellular stress and eventual cell death. […] Both the ROS and caspase readouts were obtained by using commercially available reagent kits, which are based on a fluorescent indicator readout for each metric per the supplier's protocol. […] Readouts are routinely taken at 80 min and 150 min after incubation is started. Following a similar layout as with the ROS induction assay, the present inventors subsequently assessed induction of Caspase 3/7 activity following a 1 hour challenge with 2.5 uM A23187. Readings from Caspase 3/7 activation were taken at 80 and 150 minutes post-substrate addition and readouts were compared to non-supplemented controls.

[6] = tested on: iPSC-derived ocular stem cells (ABC-101); assay: ROS assay after TBHP challenge of ocular stem cells; assay type: cell-based; details: 550 uM TBHP challenge, ROS at 3 hours and 4 hours, normalized to challenged wells without peptide, FIGS. 7-8
Description: To assess the cytoprotective properties of the α-MSH peptide analogues in-vitro the present inventors tested their modulatory influence on reactive oxygen species (ROS) production and caspase activation in response to cellular stress. For these in-vitro challenge assays, the present inventors induced cellular stress using tert-Butyl hydroperoxide (TBHP) or calcium ionophore (A23187), compounds which are respectively known to induce oxidative and metabolic stress. Oxidative stress was correlated to an increase of ROS within cells. […] Within the current assays, the present inventors monitored ROS accumulation and subsequent caspase activity as readouts of cellular stress and eventual cell death. […] Both the ROS and caspase readouts were obtained by using commercially available reagent kits, which are based on a fluorescent indicator readout for each metric per the supplier's protocol. […] Since the assay uses a cell-permeable dye, the readout can be performed within live cells and results in a red fluorescent signal (Ex/Em=520/605 nm), which is correlated to the amount of accumulated ROS within each well. Within the present protocol, the inventors read ROS accumulation over time, starting from 1 hour after incubation up to 4 hours post-incubation. The ocular stem cells (ABC-101 cells) were challenged with 550 uM of TBHP and ROS production was assessed over several hours. […]

- level at 24 h ([1]; K173 Concentrations (ng/mL) in Rabbit Aqueous Humor OD Sample): 3.34 ng/mL
- level at 24 h ([1]; K173 Concentrations (ng/mL) in Rabbit Aqueous Humor OS Sample): 3.94 ng/mL
- aqueous humor (AH) concentrations with repeated dosing [3]: increase with repeated dosing
Structure (SMILES): CCCC[C@H](NC(=O)c1cc(O)cc(O)c1)C(=O)N[C@H]1CCCCn2cc(nn2)C[C@@H](C(N)=O)NC(=O)[C@H](Cc2c[nH]c3ccccc23)NC(=O)[C@H](CCCNC(=N)N)NC(=O)[C@@H](Cc2ccc(F)cc2)NC(=O)[C@H](Cc2c[nH]cn2)NC1=O [Peptide K173, HyBA-Nle-[Lys(N3)-His-Dphe(4-F)-Arg-Trp-Pra]-NH2] ({Benzoyl(3,5-(OH)2)}-[Nle][Lys(N3)]H[dPhe(4-F)]RW[Pra]-NH2; triazole 2-7)
- wound healing (rate of wound closure, corneal flat mount) ([2]; 3 animals per group, FIGS. 12A, 12B): enhanced wound healing
- corneal edema (corneal stromal thickness by OCT) ([2]; topical 1 mg/ml or 5 mg/ml QD or BID, FIG. 11): decreased corneal edema
- levels after 24 hours [3]: measurable levels were detected after 24 hours in all dose groups
- ocular surface retention and Tmax ([3]; topical or ocular): prolonged ocular surface retention and Tmax

- Solubility [4]: >5000 µg/mL
Structure (SMILES): CCCC[C@H](NC(C)=O)C(=O)N[C@H]1CCCCn2cc(nn2)C[C@@H](C(N)=O)NC(=O)[C@H](Cc2c[nH]c3ccccc23)NC(=O)[C@H](CCCNC(=N)N)NC(=O)[C@@H](Cc2ccccc2)NC(=O)[C@H](Cc2cnc[nH]2)NC1=O [Peptide K110, Ac-Nle-[Lys(N3)-His-DPhe-Arg-Trp-Pra]-NH2] (Ac-[Nle][Lys(N3)]H[dF]RW[Pra]-NH2; triazole 2-7)

Structure (SMILES): CCCC[C@H](NC(=O)c1cc(O)cc(O)c1)C(=O)N[C@H]1CCCCn2cc(nn2)C[C@@H](C(N)=O)NC(=O)[C@H](Cc2c[nH]c3ccccc23)NC(=O)[C@H](CCCNC(=N)N)NC(=O)[C@@H](Cc2ccccc2)NC(=O)[C@H](Cc2c[nH]cn2)NC1=O [Peptide K174, HyBA-Nle-[Lys(N3)-His-DPhe-Arg-Trp-Pra]-NH2] ({Benzoyl(3,5-(OH)2)}-[Nle][Lys(N3)]H[dF]RW[Pra]-NH2; triazole 2-7)
- percent increase in caspase activation over control ([5]; 100 nM peptide, A23187 challenge, FIG. 9): lowest percent increase over control
- Caspase 3/7 activity (protection against apoptosis induction) ([5]; 1 hour challenge with 2.5 uM A23187, readings at 80 and 150 minutes, vs non-supplemented controls, FIGS. 9-10): highest degree of protection against apoptosis induction
- protection against ROS accumulation [6]: protective against ROS accumulation down to the low pM range
